Laboratory results as given in article PMC6099921, “Microwave Optimized Synthesis of N-(adamantan-1-yl)-4-[(adamantan-1-yl)-sulfamoyl]benzamide and Its Derivatives for Anti-Dengue Virus Activity” (Molecules : A Journal of Synthetic Chemistry and Natural …, 2018).
Read-outs that look alike come from different tables or passages of the source.

How the values were obtained:
[1] = Celltiter-Glo Luminescent cell viability assay (cytotoxicity); format: cell-based; details: human
Experimental: (§1) The antiviral activity of the test compounds (1, 3, 6, and 7) was examined in the Cell-based Flavivirus Immuno-assay (CFI assay). The CFI assay is based on a quantitative immunodetection of the DENV envelope protein production in A549 cells. Infection of the A549 cells by the DENV2 was allowed to occur in the presence of each test compound, after which virus load was measured by quantifying the amount of envelope protein that is produced using enzyme linked immunosorbent assay (ELISA). To ensure that the inhibition of the envelope production was not due to cell death, the cytotoxicity of each test compound was assessed via the cell viability assay.
(§2) The cytotoxicities of the test compounds were measured by a Celltiter-Glo Luminescent cell viability assay, according to the manufacturer’s protocol (catalog no. G7570; Promega, Madison, WI, USA). The A549 cell preparation and compound addition were performed, as described above under the “CFI assay”. After 48 h of incubation, the luminescent signals for cells treated with the test compounds were compared to those for cells treated with dimethyl sulfoxide (DMSO) to determine the CC50. […] All of the experiments were conducted in triplicate.

DENV2 = experiment: Cell-based Flavivirus Immunodetection (CFI) assay, DENV envelope protein production in A549 cells; design: species or system dengue virus serotype 2; details: ± standard deviation, at least three independent experiments
Experimental: as §1
A549 cells (catalog no. CCL-185; ATCC, Manassas, VA, USA) were maintained in Ham’s F-12 medium with 10% fetal bovine serum (FBS) and 1% penicillin-streptomycin at 37 °C in 5% CO2. The DENV2 used in this study was prepared by inoculating monolayers of C6/36 cells grown in RPMI 1640 medium with 5% FBS and 1% penicillin-streptomycin. After incubation at 28 °C for four to five days, the cell culture supernatant was collected after clarification of cell debris and was stored at −80 °C until used.
A549 cells were trypsinised and diluted to a concentration of 2 × 10^5 cells/mL in culture medium containing 2% FBS. A total of 100 μL of the cell suspension (2 × 10^4 cells) was dispensed into each well of a 96-well tissue culture plate. The cells were grown overnight in culture medium at 37 °C with 5% CO2 and were then infected with the DENV at a multiplicity of infection of 0.3 in the presence of different concentrations of the test compounds for 1 h at 37 °C with 5% CO2. The virus inoculum was removed and then replaced with fresh medium containing the test compounds and the cells were incubated at 37 °C with 5% CO2 for 48 h. The cells were washed once with phosphate-buffered saline (PBS) and fixed with cold methanol for 10 min. After the fixed cells were washed twice with PBS, they were blocked with PBS containing 1% FBS and 0.05% Tween 20 for 1 h at room temperature. A primary antibody (antibody 4G2) solution was then added, and the mixture was incubated for 3 h. The cells were washed three times with PBS, followed by incubation for 1 h with horseradish peroxidase-conjugated anti-mouse immunoglobulin G. After the cells were washed three times with PBS, 3,3′,5,5′-tetramethylbenzidine substrate solution was added to each well, and the reaction was stopped by adding 0.5 M sulfuric acid. The absorbencies of the solutions were measured with a Tecan Safire II plate reader (Tecan Group Ltd., Männedorf, Switzerland) at 450 nm for viral antigen quantification. Dose-response curves were plotted from the mean absorbance versus the log of the concentration of the test compound. The IC50, that is, the concentration of the test compound that inhibited the level of viral envelope protein production by 50%, was calculated by nonlinear regression analysis. All of the experiments were conducted in triplicate.

DENV2 NS2B/NS3 protease = system: DENV2 NS2B/NS3 protease; design: method as in ref 6 (Timiri et al., 2015); details: in vitro; ref 6 (Timiri et al., 2015); cited from earlier work
A549 cells = experiment: Celltiter-Glo Luminescent cell viability assay (cytotoxicity); format: cell-based; details: A549 cells, 48 h, maximum concentration tested 100 µM
Experimental: as §1, §2

DENV [2] = system: DENV; design: method as in ref 8 (Koff et al., 1980); details: all four serotypes, ref 8 (Koff et al., 1980); cited from earlier work
DENV [3] = system: DENV; design: method as in ref 9 (Lin and Chen, 2016); details: small scale clinical study; ref 9 (Lin and Chen, 2016); cited from earlier work
[4] = A549 cells, 48 h, maximum concentration tested 100 µM, read-out: CC50
[5] = Dengue virus, DENV2, A549, 48 h, CFI assay, A549 cells infected with DENV2, MOI 0.3, 48 h, read-out: DENV2 IC50

Row | SMILES | CC50 at 48 h [1, 4] | IC50 (DENV2; [5]) | IC50 (DENV2 NS2B/NS3 protease) | CC50 (A549 cells) | also measured
1 | O=C(NC12CC3CC(CC(C3)C1)C2)c1ccccc1 [Compound 6, N-(adamantan-1-yl)benzamide] | > 100 µM | > 100 µM | – | – | –
2 | CCc1ccc(NS(=O)(=O)c2ccc(N3C(=O)c4ccccc4C3=O)cc2)cc1 [SF1] | – | – | 48.2 µM | – | –
3 | O=C(NC12CC3CC(CC(C3)C1)C2)c1ccc(S(=O)(=O)NC23CC4CC(CC(C4)C2)C3)cc1 [Compound 3, N-(adamantan-1-yl)-4-[(adamantan-1-yl)sulfamoyl]benzamide] | < 100 µM | – | – | > 100 µM | IC50 (DENV2; CFI assay, A549 cells infected with DENV2, MOI 0.3, 48 h, read-out: DENV2 IC50): 22.4 ± 7.7 µM; IC50 (DENV2; Dengue virus, DENV2, A549, 48 h, read-out: DENV2 IC50, CFI assay, A549 cells infected with DENV2, MOI 0.3, 48 h): 22.2 µM
4 | NC12CC3CC(CC(C3)C1)C2 [Compound 1, amantadine, reference compound] | – | > 100 µM | – | – | CC50 at 48 h ([1]; CC50): > 100 µM; anti-DENV activity in vitro (DENV [2]): anti-DENV activity on all four serotypes; treatment effectiveness in DENV infected patients (DENV [3]): effective treatment option; DENV2 IC50 (DENV2; CFI assay, A549 cells infected with DENV2, MOI 0.3, 48 h): did not show significant DENV2 activity
5 | NS(=O)(=O)c1ccc(C(=O)NC23CC4CC(CC(C4)C2)C3)cc1 [Compound 7, N-(adamantan-1-yl)-4-sulfamoylbenzamide] | < 100 µM | 42.8 ± 8.6 µM | – | > 100 µM | –
6 | O=C1c2ccccc2C(=O)N1c1ccc(S(=O)(=O)Nc2cccc3ccccc23)cc1 [SF2] | – | – | 122 µM | – | –
